Experimental data reported in US6313090A, “Methods for treating parasitic infection using thiopeptides” (The United States of America as represented by the …, priority 2000, dated 2001).

Experiments:
[1] = Precipitation seen in culture medium of the growth assay; assay type: physicochemical; conditions: highest concentrations (final 0.2mM) in culture
Procedure: Assay of Growth inhibition. Thiostrepton (1525 u/mg; Calbiochem) and anisomycin (Sigma) were dissolved at 100 mM in DMSO (Pierce). P. falciparum (strain 3D7) (44) was maintained in culture with human erythrocytes (5% hematocrit) in RPMI-1640 (Life Technologies) supplemented with HEPES and sodium bicarbonate and human sera (10%) under standard conditions (18,19). The growth inhibition assay was conducted as described (20). Briefly, the parasitemia was adjusted to 0.1% parasitemia, 2.5% hematocrit and 200 μl aliquots placed in wells of a microtitre dish. Serial dilutions of drugs were made in RPMI. Thiostrepton was diluted to 10 mM in DMSO before the serial dilutions in RPMI. Aliquots (20 μl) were added in triplicate to the cultures in the microtitre plate, mixing well. At the highest concentrations (final 0.2mM), thiostrepton precipitates. After incubation for 48 hours under standard conditions, [2,8-^3 H]-hypoxanthine Moravek Biochemicals, 12.5 Ci/mmol) in RPMI (20 μl, 0.05 mCi/ml) was added to each well. After incubation for a further 24 hours, the cultures were lysed and incorporated radioactivity was measured with an automated counter.

MDBKF5D2 cell monolayers = assay: Toxicity testing assay (MTS/PMS, OD 490 nm); assay type: cell-based
Procedure: (§1) Toxicity Testing Assay. 200 μl of medium containing drug at the above-mentioned concentrations and positive control preparations [paromomycin/DMSO (2 mg/ml/0.2%)] were introduced into two wells of a 96 well plate containing confluent MDBKF5D2 cell monolayers (ATCC accession number CCL-22) infected with intact C. parvum GCH1 oocysts (5.0×10^4 per well) (43) and two wells without monolayers. The drug was incubated on the monolayers at 37° C. and 8% CO2. At 48 hours, MTS (Owen's solution) and PMS were added to each well at concentrations of 333 μg/ml and 25 μM respectively. The plate was returned to the incubator in the dark to develop for two hours. At two hours, 100 μl of each supernatant was transferred to a new microtiter plate and the optical density (OD) was read in an ELISA plate reader at 490 nm.
(§2) Percent toxicity was calculated by subtracting the mean drug OD from the medium OD, divided by the medium OD, all of which was then multiplied by 100, as shown in the equation below. Cytotoxicity scores were assigned as follows: 0-5% toxicity=0, 6-25% toxicity=1, 26-50% toxicity=2, 51-75% toxicity=3, and 76-100% toxicity=4. As a standard, cytotoxicity scores of 0 or, 1 were considered acceptable levels of toxicity. Toxicity scores of 2, 3, or 4 were considered as high levels of toxicity to the cell monolayer. [formula]
as §1, with “containing drugs” for “containing drug”, “monolayers” for “monolayers (ATCC accession number CCL-22)”, “well)” for “well) (43)”, “and 25μM” for “and 25 μM”
as §2, with “or” for “or,”
as §1, with “monolayers” for “monolayers (ATCC accession number CCL-22)”, “well)” for “well) (43)”, “25μM” for “25 μM”

[2] = Table 4 Washed at 4 hours, 100 μg/ml
[3] = Table 4 Washed at 4 hours, 200 μg/ml
[4] = Table 4 Washed at 4 hours, 400 μg/ml
[5] = Table 4 Washed at 4 hours, 800 μg/ml
[6] = Table 5, 800 μg/ml, drug added at 0 hrs
[7] = Table 5, 800 μg/ml, drug added at 2 hrs
[8] = Table 5, 800 μg/ml, drug added at 4 hrs
[9] = Table 5, 800 μg/ml, drug added at 8 hrs
[10] = Table 5, 800 μg/ml, drug added at 24 hrs

C=C(NC(=O)C(=C)NC(=O)c1csc(C2=N[C@@H]3c4csc(n4)[C@H]4NC(=O)c5csc(n5)[C@H]([C@](C)(O)[C@@H](C)O)NC(=O)[C@H]5CSC(=N5)/C(=C/C)NC(=O)[C@H]([C@@H](C)O)NC(=O)c5csc(n5)[C@]3(CC2)NC(=O)[C@H](C)NC(=O)C(=C)NC(=O)[C@H](C)NC(=O)[C@H]([C@@H](C)CC)N[C@@H]2C=Cc3c([C@H](C)O)cc(nc3[C@H]2O)C(=O)O[C@@H]4C)n1)C(N)=O [Thiostrepton, thiostrepton]
precipitation [1]: precipitates
Tox. O.D. (MDBKF5D2 cell monolayers; Table 1, 1 μg/ml): .941
Toxicity Percent (MDBKF5D2 cell monolayers; Table 1, 1 μg/ml): 14.50%
Toxicity Score (MDBKF5D2 cell monolayers; Table 1, 1 μg/ml): 1 (6-25% toxicity=1)
Tox. O.D. (MDBKF5D2 cell monolayers; Table 1, 10 μg/ml): .991
Toxicity Percent (MDBKF5D2 cell monolayers; Table 1, 10 μg/ml): 9.95%
Toxicity Score (MDBKF5D2 cell monolayers; Table 1, 10 μg/ml): 1 (6-25% toxicity=1)
Tox. O.D. (MDBKF5D2 cell monolayers; Table 1, 100 μg/ml): .994
Toxicity Percent (MDBKF5D2 cell monolayers; Table 1, 100 μg/ml): 9.64%
Toxicity Score (MDBKF5D2 cell monolayers; Table 1, 100 μg/ml): 1 (6-25% toxicity=1)
Tox. O.D. (MDBKF5D2 cell monolayers; Table 1, .1 μg/ml): .912
Toxicity Percent (MDBKF5D2 cell monolayers; Table 1, .1 μg/ml): 17.14%
Toxicity Score (MDBKF5D2 cell monolayers; Table 1, .1 μg/ml): 1 (6-25% toxicity=1)
Tox. O.D. (MDBKF5D2 cell monolayers; Table 2, 100 μg/ml): .915
Toxicity Percent (MDBKF5D2 cell monolayers; Table 2, 100 μg/ml): 9.14%
Toxicity Score (MDBKF5D2 cell monolayers; Table 2, 100 μg/ml): 1 (6-25% toxicity=1)
Tox. O.D. (MDBKF5D2 cell monolayers; Table 2, 200 μg/ml): .820
Toxicity Percent (MDBKF5D2 cell monolayers; Table 2, 200 μg/ml): 18.62%
Toxicity Score (MDBKF5D2 cell monolayers; Table 2, 200 μg/ml): 1 (6-25% toxicity=1)
Tox. O.D. (MDBKF5D2 cell monolayers; Table 2, 400 μg/ml): .799
Toxicity Percent (MDBKF5D2 cell monolayers; Table 2, 400 μg/ml): 20.71%
Toxicity Score (MDBKF5D2 cell monolayers; Table 2, 400 μg/ml): 1 (6-25% toxicity=1)
Tox. O.D. (MDBKF5D2 cell monolayers; Table 2, 800 μg/ml): .676
Toxicity Percent (MDBKF5D2 cell monolayers; Table 2, 800 μg/ml): 32.87%
Toxicity Score (MDBKF5D2 cell monolayers; Table 2, 800 μg/ml): 2 (26-50% toxicity=2)
Tox. O.D. (MDBKF5D2 cell monolayers; Table 3 Unwashed, 100 μg/ml): .969
Toxicity Percent (MDBKF5D2 cell monolayers; Table 3 Unwashed, 100 μg/ml): 7.10%
Toxicity Score (MDBKF5D2 cell monolayers; Table 3 Unwashed, 100 μg/ml): 1 (6-25% toxicity=1)
Tox. O.D. (MDBKF5D2 cell monolayers; Table 3 Unwashed, 200 μg/ml): .827
Toxicity Percent (MDBKF5D2 cell monolayers; Table 3 Unwashed, 200 μg/ml): 20.67%
Toxicity Score (MDBKF5D2 cell monolayers; Table 3 Unwashed, 200 μg/ml): 1 (6-25% toxicity=1)
Tox. O.D. (MDBKF5D2 cell monolayers; Table 3 Unwashed, 400 μg/ml): .788
Toxicity Percent (MDBKF5D2 cell monolayers; Table 3 Unwashed, 400 μg/ml): 24.41%
Toxicity Score (MDBKF5D2 cell monolayers; Table 3 Unwashed, 400 μg/ml): 1 (6-25% toxicity=1)
Tox. O.D. (MDBKF5D2 cell monolayers; Table 3 Unwashed, 800 μg/ml): .739
Toxicity Percent (MDBKF5D2 cell monolayers; Table 3 Unwashed, 800 μg/ml): 29.11%
Toxicity Score (MDBKF5D2 cell monolayers; Table 3 Unwashed, 800 μg/ml): 2 (26-50% toxicity=2)
Tox. O.D. (MDBKF5D2 cell monolayers; [2]): .969
Toxicity Percent (MDBKF5D2 cell monolayers; [2]): 6.96%
Toxicity Score (MDBKF5D2 cell monolayers; [2]): 1 (6-25% toxicity=1)
Tox. O.D. (MDBKF5D2 cell monolayers; [3]): .827
Toxicity Percent (MDBKF5D2 cell monolayers; [3]): 20.56%
Toxicity Score (MDBKF5D2 cell monolayers; [3]): 1 (6-25% toxicity=1)
Tox. O.D. (MDBKF5D2 cell monolayers; [4]): .788
Toxicity Percent (MDBKF5D2 cell monolayers; [4]): 24.30%
Toxicity Score (MDBKF5D2 cell monolayers; [4]): 1 (6-25% toxicity=1)
Tox. O.D. (MDBKF5D2 cell monolayers; [5]): .739
Toxicity Percent (MDBKF5D2 cell monolayers; [5]): 29.01%
Toxicity Score (MDBKF5D2 cell monolayers; [5]): 2 (26-50% toxicity=2)
Tox. O.D. (MDBKF5D2 cell monolayers; [6]): .783
Toxicity Percent (MDBKF5D2 cell monolayers; [6]): 22.91%
Toxicity Score (MDBKF5D2 cell monolayers; [6]): 1 (6-25% toxicity=1)
Tox. O.D. (MDBKF5D2 cell monolayers; [7]): .577
Toxicity Percent (MDBKF5D2 cell monolayers; [7]): 43.15%
Toxicity Score (MDBKF5D2 cell monolayers; [7]): 2 (26-50% toxicity=2)
Tox. O.D. (MDBKF5D2 cell monolayers; [8]): .638
Toxicity Percent (MDBKF5D2 cell monolayers; [8]): 37.14%
Toxicity Score (MDBKF5D2 cell monolayers; [8]): 2 (26-50% toxicity=2)
Tox. O.D. (MDBKF5D2 cell monolayers; [9]): .786
Toxicity Percent (MDBKF5D2 cell monolayers; [9]): 22.56%
Toxicity Score (MDBKF5D2 cell monolayers; [9]): 1 (6-25% toxicity=1)
Tox. O.D. (MDBKF5D2 cell monolayers; [10]): .749
Toxicity Percent (MDBKF5D2 cell monolayers; [10]): 26.26%
Toxicity Score (MDBKF5D2 cell monolayers; [10]): 2 (26-50% toxicity=2)
Tox. O.D. (MDBKF5D2 cell monolayers; Table 6, 100 μg/ml): 1.348
Toxicity Percent (MDBKF5D2 cell monolayers; Table 6, 100 μg/ml): 18.15%
Toxicity Score (MDBKF5D2 cell monolayers; Table 6, 100 μg/ml): 1 (6-25% toxicity=1)
Tox. O.D. (MDBKF5D2 cell monolayers; Table 6, 200 μg/ml): 1.324
Toxicity Percent (MDBKF5D2 cell monolayers; Table 6, 200 μg/ml): 19.61%
Toxicity Score (MDBKF5D2 cell monolayers; Table 6, 200 μg/ml): 1 (6-25% toxicity=1)
Tox. O.D. (MDBKF5D2 cell monolayers; Table 6, 400 μg/ml): 1.146
Toxicity Percent (MDBKF5D2 cell monolayers; Table 6, 400 μg/ml): 30.45%
Toxicity Score (MDBKF5D2 cell monolayers; Table 6, 400 μg/ml): 2 (26-50% toxicity=2)
Tox. O.D. (MDBKF5D2 cell monolayers; Table 6, 800 μg/ml): .890
Toxicity Percent (MDBKF5D2 cell monolayers; Table 6, 800 μg/ml): 45.96%
Toxicity Score (MDBKF5D2 cell monolayers; Table 6, 800 μg/ml): 2 (26-50% toxicity=2)
toxicity to cells (MDBKF5D2 cell monolayers; in vitro, summary statement): little toxicity to cells
